Measured values: US5591741A, “Fungicidal spiroheterocyclic derivatives” (American Cyanamid Company, priority 1993, dated 1997)

Key:
[1] = test system: Erysiphe graminis f.sp. hordei; test: Direct protectant activity against barley powdery mildew (EGP); type: in vivo; details: direct protectant foliar spray, 8 days
In short: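 Barley seedlings (cv Golden Promise, single-leaf stage) were foliar-sprayed, held 24 h at 18 °C/40% RH, then dusted with mildew conidia. After 8 days at 18 °C/40% RH, sporulating leaf area was scored as a rating against untreated or diluent-sprayed controls.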

[2] = test system: Phytophthora infestans; type: in vivo; details: tomato, direct protectant foliar spray
[3] = test system: Alternaria solani; test: Activity against tomato early blight (AS); type: in vivo; details: Table VI; tomato seedlings, contact prophylactic foliar spray, 4 days
In short: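 Foliar contact prophylactic spray on tomato seedlings (cv Outdoor Girl, second true leaf expanded) in acetone/water 50:50 with 0.04% Tween 20; 24 h at 20° C, 40% R.H., then inoculation with 10^4 spores/ml A. solani conidia. Kept moist at 21° C; lesion cover rated 4 days post-inoculation against untreated or diluent-sprayed controls.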

[4] = test system: Rhizoctonia solani; test: Activity against Rhizoctonia in-vitro (RSI); type: cell-based; details: 10 ppm, 10 days, 20° C., mycelial growth
In short: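 R. solani mycelial fragments (5×10^4/ml) in half-strength Potato Dextrose Broth with compound added from acetone to 10 ppm final. Mycelial growth assessed after 10 days at 20° C, rated against untreated or diluent control.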

[5] = test system: Pyricularia oryzae; type: in vivo; details: rice seedlings, direct therapeutic foliar spray, 600 ppm, 4-5 days
[6] = test system: Botrytis cinerea; test: Direct protectant activity against broad bean grey mould (BCB); type: in vivo; details: direct protectant foliar spray, 600 ppm, 4 days
In short: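 Broad bean plants (cv The Sutton, two leaf pairs) sprayed on upper leaf surfaces at 600 ppm, then inoculated 24 h later with 10^6 conidia/ml. Kept 4 days at 22 °C, high humidity; disease control rated from % leaf area with lesions against untreated or diluent controls.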

[7] = test system: Erysiphe graminis f.sp. hordei; test: Activity against barley powdery mildew, direct therapeutic (EGT); type: in vivo; details: direct therapeutic foliar spray, 600 ppm, up to 7 days
In short: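 Barley seedlings (cv. Golden Promise, single-leaf stage) were dusted with mildew conidia one day before a therapeutic foliar spray of 600 ppm compound. Plants were kept at 18 °C and 40% humidity for up to 7 days, and sporulating leaf area was rated against untreated or diluent-sprayed controls.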

[8] = test system: Plasmopara viticola; test: Antisporulant activity against vine downy mildew (PVA); type: in vivo; details: vine leaves, antisporulant foliar spray, 600 ppm, 750 l/ha
In short: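 Cabernet Sauvignon vines (~8 cm) inoculated on lower leaf surfaces with 5×10^4 zoosporangia/ml, held 24 h at 21° C high humidity then 24 h glasshouse. Infected leaves sprayed underside with 600 ppm compound in 1:1 water/acetone, 0.04% Tween 20, 750 l/ha; 96 h glasshouse, 24 h humidity. Sporulating leaf area rated versus control.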

[9] = test system: Leptosphaeria nodorum; test: Activity against wheat leafspot (LN); type: in vivo; details: direct therapeutic foliar spray, 600 ppm, 6-8 days
In short: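 Wheat cv Norman at single-leaf stage spray-inoculated with 1.5×10^6 conidia/ml, held 24 h at high humidity, then sprayed therapeutically with test compound at 600 ppm. Kept 6-8 days at 22° C, 70% humidity; lesion density per leaf rated against untreated or diluent-sprayed controls.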

[10] = test system: Venturia inaequalis; test: Activity against apple scab in-vitro (VII); type: cell-based; details: 10 ppm, 10 days, 20° C., mycelial growth
In short: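 Compound in acetone was tested at 10 ppm final in half-strength Potato Dextrose Broth inoculated with V. inaequalis mycelial fragments and spores at 5×10^4 propagules/ml. After 10 days at 20° C, mycelial growth was rated against untreated or diluent controls.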

[11] = test system: Pseudocercosporella herpotrichoides; test: Activity against wheat eyespot in-vitro (PHI); type: cell-based; details: 10 ppm, 10 days, 20° C., mycelial growth
In short: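 P. herpotrichoides mycelial fragments (5×10^4/ml) grown in half-strength PDB with compound at 10 ppm final, added from acetone. Incubated 10 days at 20 °C; mycelial growth rated against untreated or diluent controls.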

SMILES | disease control rating EGP [1] | disease control rating PIP [2] | disease control rating AS [3] | disease control rating RSI [4] | disease control rating PO [5] | disease control rating BCB [6] | disease control rating EGT [7] | disease control rating PVA [8] | disease control rating LN [9] | disease control rating VII [10] | disease control rating PHI [11]
CC1CCCCC1NC1COC2(CCC(C(C)(C)C)CC2)C1 (centres unmarked) [Compound 87] | 2 (greater than 80% disease control) | 2 (greater than 80% disease control) | 0 (less than 50% disease control) | 1 (about 50-80% disease control) | 0 (less than 50% disease control) | 0 (less than 50% disease control) | 2 (greater than 80% disease control) | 0 (less than 50% disease control) | 0 (less than 50% disease control) | 1 (about 50-80% disease control) | 0 (less than 50% disease control)
CCCCCCNC1COC2(CCC(C(C)(C)C)CC2)C1 (centres unmarked) [Compound 38] | 2 (greater than 80% disease control) | 0 (less than 50% disease control) | 2 (greater than 80% disease control) | 1 (about 50-80% disease control) | 0 (less than 50% disease control) | 0 (less than 50% disease control) | 2 (greater than 80% disease control) | 0 (less than 50% disease control) | 0 (less than 50% disease control) | 0 (less than 50% disease control) | 2 (greater than 80% disease control)
CCN(CCC1CCCCC1)C1COC2(CCC(C(C)(C)C)CC2)C1 (centres unmarked) [Compound 118] | 2 (greater than 80% disease control) | 0 (less than 50% disease control) | 0 (less than 50% disease control) | 1 (about 50-80% disease control) | 0 (less than 50% disease control) | 0 (less than 50% disease control) | 2 (greater than 80% disease control) | 2 (greater than 80% disease control) | 0 (less than 50% disease control) | 1 (about 50-80% disease control) | 1 (about 50-80% disease control)
CCCC(CCC)NC1COC2(CCC(C(C)(C)C)CC2)C1 (centres unmarked) [Compound 99, 3-Hept-4-ylamino-8-t-butyl-1-oxaspiro(4,5)-decane] | 2 (greater than 80% disease control) | 2 (greater than 80% disease control) | 0 (less than 50% disease control) | 0 (less than 50% disease control) | 0 (less than 50% disease control) | 0 (less than 50% disease control) | 2 (greater than 80% disease control) | 0 (less than 50% disease control) | 0 (less than 50% disease control) | 2 (greater than 80% disease control) | 0 (less than 50% disease control)
CC(C)(C)NC1COC2(CCC(C(C)(C)C)CC2)C1 (centres unmarked) [Compound 81] | 2 (greater than 80% disease control) | 2 (greater than 80% disease control) | 0 (less than 50% disease control) | 0 (less than 50% disease control) | 0 (less than 50% disease control) | 2 (greater than 80% disease control) | 2 (greater than 80% disease control) | 0 (less than 50% disease control) | 0 (less than 50% disease control) | 0 (less than 50% disease control) | 0 (less than 50% disease control)
CC(C)(C)C1CCC2(CC1)CC(NCCC1CCCCC1)CO2 (centres unmarked) [Compound 100] | 2 (greater than 80% disease control) | 2 (greater than 80% disease control) | 0 (less than 50% disease control) | 1 (about 50-80% disease control) | 0 (less than 50% disease control) | 2 (greater than 80% disease control) | 2 (greater than 80% disease control) | 0 (less than 50% disease control) | 0 (less than 50% disease control) | 2 (greater than 80% disease control) | 1 (about 50-80% disease control)
CC(C)(C)C1CCC2(CC1)CC(N1CCC3CCCCC3C1)CO2 (centres unmarked) [Compound 6] | 2 (greater than 80% disease control) | 0 (less than 50% disease control) | 0 (less than 50% disease control) | 1 (about 50-80% disease control) | 0 (less than 50% disease control) | 1 (about 50-80% disease control) | 2 (greater than 80% disease control) | 0 (less than 50% disease control) | 0 (less than 50% disease control) | 1 (about 50-80% disease control) | 0 (less than 50% disease control)
CC1CCC(NC2COC3(CCC(C(C)(C)C)CC3)C2)CC1 (centres unmarked) [Compound 89] | 2 (greater than 80% disease control) | 0 (less than 50% disease control) | 0 (less than 50% disease control) | 1 (about 50-80% disease control) | 0 (less than 50% disease control) | 0 (less than 50% disease control) | 2 (greater than 80% disease control) | 1 (about 50-80% disease control) | 1 (about 50-80% disease control) | 0 (less than 50% disease control) | 0 (less than 50% disease control)
C1CCC2CN(C3COC4(C3)C3CC5CC(C3)CC4C5)CCC2C1 (centres unmarked) [Compound 113] | 1 (about 50-80% disease control) | 1 (about 50-80% disease control) | 0 (less than 50% disease control) | 0 (less than 50% disease control) | 0 (less than 50% disease control) | 1 (about 50-80% disease control) | 0 (less than 50% disease control) | 0 (less than 50% disease control) | 0 (less than 50% disease control) | 1 (about 50-80% disease control) | 0 (less than 50% disease control)
CCCCCCN(C)C1COC2(CCC(c3ccccc3)CC2)C1 (centres unmarked) [Compound 61] | 2 (greater than 80% disease control) | 0 (less than 50% disease control) | 0 (less than 50% disease control) | 0 (less than 50% disease control) | 0 (less than 50% disease control) | 0 (less than 50% disease control) | 2 (greater than 80% disease control) | 0 (less than 50% disease control) | 1 (about 50-80% disease control) | 1 (about 50-80% disease control) | 2 (greater than 80% disease control)
